Data from article PMC9019904, “AD Informer Set: Chemical tools to facilitate Alzheimer's disease drug discovery” (Alzheimer's & Dementia : Translational Research & Clinical …, 2022).

Key:
[1] = tested on: BV2 (mouse microglia) cell line; assay: pHrodo-myelin phagocytosis/cell viability high content imaging assay: viability (cell count, nuclear area, nuclear intensity)
In short: (§1)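 Viability was read as total cell count per well by high-content imaging, with mean average nuclear intensity per cell profiling apoptosis (rise early, fall late). Compounds were given at 10 μM for 48 h, pHrodo-myelin being added for the final 20 h. Values are means of two points as % untreated control.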

[2] = tested on: HMC3 (human microglia) cell line; assay: as above
In short: as §1

[3] = tested on: BV2 (mouse microglia) cell line; assay: pHrodo-myelin phagocytosis/cell viability high content imaging assay: phagocytosis signal; type: cell-based
In short: (§2)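 High content imaging, roughly 22 hours post pHrodo-myelin addition, recorded phagocytosis signal alongside viability in microglial lines BV2 (mouse) and HMC3 (human). Apoptosis tracked through intensity rise (early) and fall (later) among three extracted measurements.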

[4] = tested on: HMC3 (human microglia) cell line; assay: as above; type: cell-based
In short: as §2

[5] = BV2, compound 10 uM, 48 hours treatment
[6] = HMC3, compound 10 uM, 48 hours treatment
[7] = BV2, compound 10 uM, pHrodo-myelin
[8] = HMC3, compound 10 uM, pHrodo-myelin
[9] = BV2 cells, 10 uM compound, 48 hours treatment
[10] = HMC3 cells, 10 uM compound, 48 hours treatment
[11] = BV2 cells, 10 uM compound, 48 hours treatment, pHrodo-myelin final 20 hours
[12] = HMC3 cells, 10 uM compound, 48 hours treatment, pHrodo-myelin final 20 hours

Row | Structure (SMILES) | 1. Cell count (% control) [1, 5] [% control] | 2. Nuclear Area (% Control) [1, 5] [% Control] | 3. Nuclear DNA Intensity (% control) [1, 5] [% control] | 1. Cell count (% control) [2, 6] [% control] | 2. Nuclear Area (% Control) [2, 6] [% Control] | 3. Nuclear DNA Intensity (% control) [2, 6] [% control] | 4. Phagocytosis (% control) [3, 7] [% control] | 4. Phagocytosis (% control) [4, 8] [% control] | 1. Cell count (% control) [1, 9] [% control] | 2. Nuclear Area (% Control) [1, 9] [% Control] | 3. Nuclear DNA Intensity (% control) [1, 9] [% control] | 1. Cell count (% control) [2, 10] [% control] | 2. Nuclear Area (% Control) [2, 10] [% Control] | 3. Nuclear DNA Intensity (% control) [2, 10] [% control] | 4. Phagocytosis (% control) [3, 11] [% control] | 4. Phagocytosis (% control) [4, 12] [% control] | further results
1 | COC(=O)C1=C(C)NC2=C(C(=O)c3ccccc32)C1c1ccccc1OCc1ccccc1F (stereo not drawn) [UNC10303111A] | 84.0 | 101.6 | 106.1 | 166.8 | 93.9 | 99.7 | 307.3 | 61.6 |  |  |  |  |  |  |  |  | 
2 | CSc1ccc2c(c1)c(CCN)c(C)n2Cc1ccc(Cl)cc1Cl.Cl [UNC10302700A] | 22.6 | 113.6 | 33.9 | 10.1 | 49.3 | 146.5 | 0.00395 | 0.0 |  |  |  |  |  |  |  |  | 
3 | O=S(=O)(NC1CCNCC1)c1cc(S(=O)(=O)c2ccccc2)ccc1C(F)(F)F [UNC10302840A] | 104.4 | 105.6 | 95.4 | 108.8 | 103.9 | 95.8 | 189.7 | 90.9 |  |  |  |  |  |  |  |  | 
4 | Cl.NC(=O)c1cnc(N[C@@H]2CCCC[C@@H]2N)nc1Nc1cccc(-n2nccn2)c1 [UNC10302682A] |  |  |  |  |  |  |  |  | 28.1 | 80.4 | 42.1 | 54.1 | 63.7 | 181.4 | 0.00121 | 0.13 | 
5 | O=C(N/N=C/c1ccc(Cl)cc1)c1ccccc1 [UNC10302877A] |  |  |  |  |  |  |  |  | 100.1 | 103.0 | 107.1 | 103.0 | 94.5 | 106.0 | 104.1 | 87.3 | 
6 | CN1c2ccc([N+](=O)[O-])cc2N=C(c2ccc(C(=O)O)cc2)c2cc3c(cc21)C(C)(C)CCC3(C)C [UNC10303107A] |  |  |  |  |  |  |  |  | 16.8 | 151.2 | 64.7 | 75.4 | 99.6 | 105.3 | 117.4 | 76.2 | 
7 | CN1CCN(CCCN2c3ccccc3Sc3ccc(C(F)(F)F)cc32)CC1.Cl.Cl [UNC10101287D] | 26.5 | 111.5 | 99.8 | 79.4 | 102.6 | 95.6 | 137.1 | 45.4 |  |  |  |  |  |  |  |  | 
8 | N[C@@H](CC(=O)Nc1ccc(Oc2cc(F)c(F)cc2Br)cc1)C(=O)O [UNC10303167A] | 64.5 | 104.8 | 103.7 | 105.9 | 102.5 | 96.0 | 179.3 | 85.8 |  |  |  |  |  |  |  |  | 
9 | Cc1cc(NC(=O)Nc2ccccc2)n(-c2ccccc2)n1 [UNC10302880A] |  |  |  |  |  |  |  |  | 120.0 | 104.5 | 102.6 | 145.4 | 97.9 | 96.8 | 135.3 | 71.0 | 
10 | C=C1[C@@H](C)[C@H]2[C@H](Cc3ccccc3)NC(=O)[C@]23[C@H](OC(C)=O)/C=C/[C@@](C)(O)C(=O)[C@@H](C)C/C=C/[C@H]3[C@@H]1O [Cytochalasin-D] |  |  |  |  |  |  |  |  |  |  |  |  |  |  |  |  | 1. Cell count (% control) ([1]; BV2, control compound at 4uM): 9.1 % control; 2. Nuclear Area (% Control) ([1]; BV2, control compound at 4uM): 119.3 % Control; 3. Nuclear DNA Intensity (% control) ([1]; BV2, control compound at 4uM): 141.3 % control; 1. Cell count (% control) ([2]; HMC3, control compound at 4uM): 57.1 % control; 2. Nuclear Area (% Control) ([2]; HMC3, control compound at 4uM): 76.9 % Control; 3. Nuclear DNA Intensity (% control) ([2]; HMC3, control compound at 4uM): 178.9 % control; 4. Phagocytosis (% control) ([3]; BV2, control compound at 4uM, pHrodo-myelin): 18.4 % control; 4. Phagocytosis (% control) ([4]; HMC3, control compound at 4uM, pHrodo-myelin): 4.8 % control
11 | O=C(CCl)c1ccccc1Nc1cccc(C(F)(F)F)c1 [UNC10302842A] | 92.3 | 108.5 | 96.7 | 87.6 | 81.7 | 149.6 | 183.6 | 56.6 |  |  |  |  |  |  |  |  | 
12 | CCc1ccc(S(=O)(=O)c2ccccc2)cc1S(=O)(=O)NCCCN(C)C [UNC10302948A] |  |  |  |  |  |  |  |  | 115.1 | 106.0 | 108.0 | 127.5 | 97.8 | 101.2 | 187.1 | 143.6 | 
